This passage reports IC50 results from patent US20250368962A1, “THREE-DIMENSIONAL HEPATIC TISSUE AND METHOD OF MANUFACTURING THE SAME” (TOPPAN HOLDINGS INC., priority 2023, published 2025).

The test system of assay [1] is three-dimensional hepatic tissue consisting only of human hepatocytes (PXB cells). As to the kind of experiment: ATP assay (CellTiter Glo 3D) viability after exposure to hepatotoxicity-inducing compounds, Test Example 6 Condition 1. The assay is classed as cell-based. Particulars: Hepatocyte, calculated from cell viability (ATP), exposure 168 hours from day 8 of culture, no bile acids, read-out: IC50 Condition 1 (present tissue). Here is the method: The resulting mixture was centrifuged at room temperature at 400×g for 2 minutes, the supernatant was removed, and the cells were resuspended in an HCM (product number “CC-3198”, manufactured by Lonza) containing 10 U/mL thrombin (product number “R4648”, manufactured by Sigma-Aldrich) and 1 v/v % endothelial cell growth supplement (ECGS) (product number “1052”, manufactured by Sciencell) to a cell density of 1.95×10^4 cells/2 μL to obtain a cell suspension.
2 μL of an HCM containing 5 mg/mL fibrinogen and 1 v/v % ECGS was added to a 48-well microplate (product number “3830-048”, manufactured by AGC Techno Glass) to form a droplet. The cell suspension was added to the interior of each droplet, and the 48-well microplate was then left to stand in an incubator for 40 minutes to form a fibrin gel in which the human hepatocytes were embedded. 0.5 mL of HCM containing 1 v/v % ECGS was added to each well in which the fibrin gel had been formed, and the cells were cultured under the conditions of 37° C. and 5% CO2. After the start of the culture, the medium was changed every two days.

Assay [2] deals with spheroids consisting only of human hepatocytes (PXB cells). As to the kind of experiment: ATP assay (CellTiter Glo 3D) viability after exposure to hepatotoxicity-inducing compounds, Test Example 6 Condition 2. The assay is classed as cell-based. The note with it: calculated from cell viability (ATP), hepatocyte spheroids, exposure 168 hours, no bile acids, read-out: IC50 Condition 2 (spheroid).

With `CN(C)CCCN1c2ccccc2Sc2ccc(Cl)cc21` [Chlorpromazine], the 50% inhibitory concentration (IC50) was 26.6 µM in assay [1] and 25 µM in assay [2].

Turning to `CC(C)C(=O)Nc1ccc([N+](=O)[O-])c(C(F)(F)F)c1` [Flutamide], the concentration for half-maximal inhibition (IC50) was 63.9 µM in assay [1] and 178 µM in assay [2].

On to `NC(=O)N1c2ccccc2C=Cc2ccccc21` [Carbamazepine], for which the half-maximal inhibitory concentration (IC50) is 843 µM in assay [1] and 978 µM in assay [2].

`CCc1oc2ccccc2c1C(=O)c1cc(Br)c(O)c(Br)c1` [Benzbromarone]: the 50% inhibitory concentration (IC50) in assay [1] was 249 µM; in assay [2], 256 µM.

For the molecule `CS(=O)(=O)CCNCc1ccc(-c2ccc3ncnc(Nc4ccc(OCc5cccc(F)c5)c(Cl)c4)c3c2)o1` [Lapatinib], the concentration for half-maximal inhibition (IC50) in assay [1] is 8.4 µM; in assay [2], 27.3 µM.

Take `CC(=O)N1CCN(c2ccc(OCC3COC(Cn4ccnc4)(c4ccc(Cl)cc4Cl)O3)cc2)CC1` (centres unmarked) [Ketoconazole]: the IC50 in assay [1] is 80.7 µM; in assay [2], 79.5 µM.

For the molecule `CC(=O)Nc1ccc(O)cc1` [Acetaminophen], the IC50 in assay [1] was 5510 µM; in assay [2], 4670 µM.

As to `Cc1ccc(C(=O)c2cc(O)c(O)c([N+](=O)[O-])c2)cc1` [Tolcapone], the figures for the IC50 in assay [1] and in assay [2] were 132 µM and 92.4 µM, respectively.

For `C1CCC(C(CC2CCCCN2)C2CCCCC2)CC1` (centres unmarked) [Perhexiline], the results for the IC50 in assay [1] and in assay [2] were 3.6 µM and 5.6 µM, respectively.

In the case of `CCc1nn(CCCN2CCN(c3cccc(Cl)c3)CC2)c(=O)n1CCOc1ccccc1` [Nefazodone], the IC50 in assay [1] is 39.9 µM; in assay [2], 46.5 µM.

With `CS(=O)(=O)Nc1ccc([N+](=O)[O-])cc1Oc1ccccc1` [Nimesulide], the half-maximal inhibitory concentration (IC50) in assay [1] was 323 µM; in assay [2], 683 µM.

Regarding `Cc1c(C)c2c(c(C)c1O)CCC(C)(COc1ccc(CC3SC(=O)NC3=O)cc1)O2` (centres unmarked) [Troglitazone], the IC50 was 92.9 µM in assay [1] and 202 µM in assay [2].

Turning to `O=C(O)Cc1ccccc1Nc1c(Cl)cccc1Cl` [Diclofenac], the IC50 was 337 µM in assay [1] and 297 µM in assay [2].
